These results are taken from US11286242B2 (priority 2018, dated 2022).

The subject of one test is Phakopsora pachyrhizi. Description: Phakopsora pachyrhizi test in soybean, preventive spray. It is filed as in vivo. Conditions: preventive spray on soybean plants, inoculated one day after treatment, greenhouse 25° C., 90% relative humidity, read-out: control (efficacy, disease severity rating) compared to the untreated check. Here is the method:
Example 8: Phakopsora pachyrhizi Test in Soybean
Compounds were dissolved in 2% DMSO/Acetone & then mixed with water to the calibrated spray volume of 50 mL and poured into the spray bottles for further applications.
To test the preventive activity of compounds, healthy young soybean plants raised in the greenhouse were sprayed with active compound preparation at the stated application rates inside the spray cabinets using hallowcone nozzles. One day after treatment, the plants were inoculated with spore suspension containing 2.1×10^6 Phakopsora pachyrhizi inoculum. The inoculated plants were then kept in greenhouse chamber at 25° C. temperature & 90% relative humidity for disease expression.
A visual assessment of compound's performance was carried out by rating the disease severity (0-100% scale) on treated plants on 3, 7, 10 & 15 days after application. Efficacy (% control) of the compounds was calculated by comparing the disease rating in the treatment with the one of the untreated control. The sprayed plants were also assessed for compound's plant compatibility by recording symptoms like necrosis, chlorosis & stunting.

A further test deals with Alternaria solani. The test is described as follows: Alternaria solani (early blight of tomato/potato) radial mycelial growth on Potato Dextrose Agar. It is filed as cell-based. The conditions noted are these: 168 h, Potato Dextrose Agar, 25° C., 60% relative humidity, seven days, read-out: control compared to the untreated check. The protocol: Example 4: Alternaria solani (Early Blight of Tomato/Potato)
Compounds were dissolved in 0.3% DMSO & then added to Potato Dextrose Agar medium just prior to dispensing it into petri dishes. 5 mL medium with compound in the desired concentration was dispensed into 60 mm sterile petri-plates. After solidification each plate was seeded with 5 mm size mycelial disc taken form periphery of actively growing virulent culture plate. Plates were incubated in growth chambers at 25° C. temperature and 60% relative humidity for seven days and radial growth was measured.

In a further test the test system is Botrytis cinerea. Description: Botrytis cinerea (gray mold) radial mycelial growth on Potato Dextrose Agar. It is filed as cell-based. Conditions: 168 h, 22° C., 90% relative humidity, seven days, read-out: control compared to the untreated check. The protocol:
Example 3: Botrytis cinerea (Gray Mold)
Compounds were dissolved in 0.3% DMSO & then added to Potato Dextrose Agar medium just prior to dispensing it into petri dishes. 5 mL medium with compound in the desired concentration was dispensed into 60 mm sterile petri-plates. After solidification, each plate was seeded with 5 mm size mycelial disc taken form periphery of actively growing virulent culture plate. Plates were incubated in growth chambers at 22° C. temperature and 90% relative humidity for seven days and radial growth was measured.

Another test deals with Pyricularia oryzae. Description: microbe, parasite or virus in culture. It counts as cell-based. The conditions noted are these: 168 h, read-out: control compared to the untreated check.

Take `COc1ccc(S(C)(=O)=NC(=O)c2ccc(-c3noc(C(F)(F)F)n3)cc2)c(OC)c1` (centres unmarked) [Compound 56, N-((2,4-dimethoxyphenyl)(methyl)(oxo)-λ^6-sulfaneylidene)-4-(5-(trifluoromethyl)-1,2,4-oxadiazol-3-yl)benzamide]: in the test with Phakopsora pachyrhizi, the pest or weed control at 500 ppm is over 90%. Besides, the inhibition of growth at 300 ppm in the test on Alternaria solani was over 70%.

In the case of `CS(=O)(Cc1cc(F)ccc1F)=NC(=O)c1ccc(-c2noc(C(F)(F)F)n2)cc1` (centres unmarked) [Compound 62, N-((2,5-difluorobenzyl)(methyl)(oxo)-λ^6-sulfaneylidene)-4-(5-(trifluoromethyl)-1,2,4-oxadiazol-3-yl)benzamide], the pest or weed control at 500 ppm with Phakopsora pachyrhizi was over 90%. In addition, the inhibition of growth at 300 ppm in the test on Alternaria solani was over 70%. Consider `CS(=O)(Cc1ccc(C(F)(F)F)cc1)=Nc1ccc(-c2noc(C(F)(F)F)n2)cc1` (centres unmarked) [Compound 90, methyl((4-(5-(trifluoromethyl)-1,2,4-oxadiazol-3-yl)phenyl)imino)(4-(trifluoromethyl)benzyl)-λ^6-sulfanone], for which, in the test with Botrytis cinerea, the inhibition of growth at 300 ppm is over 70%. For the compound `CS(=O)(=NCc1cccc(-c2noc(C(F)(F)F)n2)c1)c1ccccc1` (centres unmarked) [Compound 138, methyl(phenyl)((3-(5-(trifluoromethyl)-1,2,4-oxadiazol-3-yl)benzyl)imino)-λ^6-sulfanone], the inhibition of growth at 300 ppm in the test with Botrytis cinerea and with Pyricularia oryzae was over 70% each time.

For the compound `Cc1ccc(S(=O)(=O)NC(=O)c2ccc(-c3noc(C(F)(F)F)n3)cc2)cc1` [Compound 153, N-tosyl-4-(5-(trifluoromethyl)-1,2,4-oxadiazol-3-yl)benzamide], the inhibition of growth at 300 ppm in the test on Botrytis cinerea was over 70%. With `COc1ccc(S(=O)(=O)NC(=O)c2ccc(-c3noc(C(F)(F)F)n3)cc2)cc1` [Compound 157, N-((4-methoxyphenyl)sulfonyl)-4-(5-(trifiuoromethyl)-1,2,4-oxadiazol-3-yl)benzamide], the inhibition of growth at 300 ppm with Botrytis cinerea and in the test on Alternaria solani was over 70% each time. Take `COc1ccc(S(C)(=O)=Nc2ccc(-c3noc(C(F)(F)F)n3)cc2)c(OC)c1` (centres unmarked) [Compound 96, (2,4-dimethoxyphenyl)(methyl)((4-(5-(trifluoromethyl)-1,2,4-oxadiazol-3-yl)phenyl)imino)-λ^6-sulfanone]: the inhibition of growth at 300 ppm in the test on Pyricularia oryzae and in the test with Alternaria solani was over 70% each time. Besides, in the test on Phakopsora pachyrhizi, the pest or weed control at 500 ppm is over 90%. Regarding `Cc1csc(S(C)(=O)=Nc2ccc(-c3noc(C(F)(F)F)n3)cc2)n1` (centres unmarked) [Compound 117, methyl(4-methylthiazol-2-yl)((4-(5-(trifluoromethyl)-1,2,4-oxadiazol-3-yl)phenyl)imino)-λ^6-sulfanone], the inhibition of growth at 300 ppm in the test with Pyricularia oryzae and in the test with Alternaria solani was over 70% throughout. With `CS(=O)(Cc1ccncc1)=NC(=O)c1ccc(-c2noc(C(F)(F)F)n2)cc1` (centres unmarked) [Compound 59, N-(mehtyl(oxo)(pyridin-4-ylmethyl)-λ^6-sulfaneylidene)-4-(5-(trifluoromethyl)-1,2,4-oxadiazol-3-yl)benzamide], the pest or weed control at 500 ppm with Phakopsora pachyrhizi was over 90%. For the same compound, the inhibition of growth at 300 ppm in the test with Alternaria solani is over 70%. Turning to `COc1cccc(S(=O)(=O)NC(=O)c2ccc(-c3noc(C(F)(F)F)n3)cc2)c1` [Compound 158, N-((3-methoxyphenyl)sulfonyl)-4-(5-(trifluoromethyl)-1,2,4-oxadiazol-3-yl)benzamide], the inhibition of growth at 300 ppm with Alternaria solani was over 70%. For `COc1ccc(S(C)(=O)=Nc2ccc(-c3noc(C(F)(F)F)n3)nc2)cc1` (centres unmarked) [Compound 108, (4-methoxyphenyl)(methyl)((6-(5-(trifluoromethyl)-1,2,4-oxadiazol-3-yl)pyridin-3-yl)imino)-λ^6-sulfanone], the inhibition of growth at 300 ppm with Botrytis cinerea and in the test on Alternaria solani was over 70% each time. The pest or weed control at 500 ppm in the test on Phakopsora pachyrhizi is over 90%.

Consider `COc1ccc(S(C)(=O)=NCc2cccc(-c3noc(C(F)(F)F)n3)c2)c(OC)c1` (centres unmarked) [Compound 140, (2,4-dimethoxyphenyl)(methyl)((3-(5-(trifluoromethyl)-1,2,4-oxadiazol-3-yl)benzyl)imino)-sulfanone], for which, in the test on Botrytis cinerea, the inhibition of growth at 300 ppm was over 70%. Consider `CS(=O)(=Nc1ccc(-c2noc(C(F)(F)F)n2)nc1)c1ccccc1` (centres unmarked) [Compound 109, methyl(phenyl)((6-(5-(trifluoromethyl)-1,2,4-oxadiazol-3-yl)pyridin-3-yl)imino)-λ^6-sulfanone], for which the inhibition of growth at 300 ppm with Botrytis cinerea and in the test on Alternaria solani was over 70% throughout. Besides, the pest or weed control at 500 ppm in the test on Phakopsora pachyrhizi is over 90%.

Consider `CS(=O)(=NCc1cccc(-c2noc(C(F)(F)F)n2)c1)c1ccccc1F` (centres unmarked) [Compound 148, (2-fluorophenyl)(methyl)((3-(5-(trifluoromethyl)-1,2,4-oxadiazol-3-yl)benzyl)imino)-λ^6-sulfanone], for which the inhibition of growth at 300 ppm in the test on Pyricularia oryzae and in the test on Alternaria solani was over 70% each time. In the case of `O=C(NS(=O)(=O)c1c(Cl)cccc1Cl)c1ccc(-c2noc(C(F)(F)F)n2)cc1` [Compound 163, N-((2,6-dichlorophenyl)sulfonyl)-4-(5-(trifiuoromethyl)-1,2,4-oxadiazol-3-yl)benzamide], the inhibition of growth at 300 ppm in the test on Alternaria solani was over 70%. Consider `CS(=O)(Cc1ccccn1)=NC(=O)c1ccc(-c2noc(C(F)(F)F)n2)cc1` (centres unmarked) [Compound 52, N-(methyl(oxo)(pyridin-2-ylmethyl)-λ^6-sulfaneylidene)-4-(5-(trifluoromethyl)-1,2,4-oxadiazol-3-yl)benzamide], for which the pest or weed control at 500 ppm in the test with Phakopsora pachyrhizi was over 90%. Besides, the inhibition of growth at 300 ppm in the test on Alternaria solani is over 70%.

For `COc1ccc(S(C)(=O)=NC(=O)c2cccc(-c3noc(C(F)(F)F)n3)c2)cc1` (centres unmarked) [Compound 71, N-((4-methoxyphenyl)(methyl)(oxo)-λ^6-sulfaneylidene)-3-(5-(trifluoromethyl)-1,2,4-oxadiazol-3-yl)benzamide], in the test with Phakopsora pachyrhizi, the pest or weed control at 500 ppm is over 90%. The inhibition of growth at 300 ppm with Alternaria solani is over 70%. As to `COc1ccc(S(C)(=O)=NCc2cccc(-c3noc(C(F)(F)F)n3)c2)cc1` (centres unmarked) [Compound 139, (4-methoxyphenyl)(methyl)((3-(5-(trifluoromethyl)-1,2,4-oxadiazol-3-yl)benzyl)imino)-λ^6-sulfanone], the inhibition of growth at 300 ppm in the test on Botrytis cinerea and in the test with Pyricularia oryzae was over 70% each time. Turning to `O=C(NS(=O)(=O)c1ccc(Br)cc1)c1ccc(-c2noc(C(F)(F)F)n2)cc1` [Compound 162, N-((4-bromophenyl)sulfonyl)-4-(5-(trifluoromethyl)-1,2,4-oxadiazol-3-yl)benzamide], the inhibition of growth at 300 ppm with Alternaria solani is over 70%. `Cc1ccc(S(C)(=O)=NCc2ccc(-c3noc(C(F)(F)F)n3)cc2)cc1` (centres unmarked) [Compound 137, methyl(p-tolyl)((4-(5-(trifluoromethyl)-1,2,4-oxadiazol-3-yl)benzyl)imino)-λ^6-sulfanone]: the inhibition of growth at 300 ppm in the test on Pyricularia oryzae and in the test with Alternaria solani was over 70% each time. On to `CS(=O)(Cc1ccc(C#N)cc1)=NC(=O)c1cccc(-c2noc(C(F)(F)F)n2)c1` (centres unmarked) [Compound 75, N-((4-cyanobenzyl)(methyl)(oxo)-λ^6-sulfaneylidene)-3-(5-(trifluoromethyl)-1,2,4-oxadiazol-3-yl)benzamide], for which the pest or weed control at 500 ppm with Phakopsora pachyrhizi was over 90%. For the same compound, the inhibition of growth at 300 ppm with Alternaria solani was over 70%. With `CS(=O)(=NC(=O)c1ccc(-c2noc(C(F)(F)F)n2)cc1)c1ccc(F)cc1F` (centres unmarked) [Compound 47, N-((2,4-difluorophenyl)(methyl)(oxo)-λ^6-sulfaneylidene)-4-(5-(trifluoromethyl)-1,2,4-oxadiazol-3-yl)benzamide], the pest or weed control at 500 ppm in the test on Phakopsora pachyrhizi was over 90%. Also, the inhibition of growth at 300 ppm in the test on Alternaria solani is over 70%. In the same order, the values of `CS(=O)(Cc1ccc(Cl)c(F)c1)=Nc1ccc(-c2noc(C(F)(F)F)n2)cc1` (centres unmarked) [Compound 99, (4-chloro-3-florobenzyl)(methyl)((4-(5-(trifluoromethyl)-1,2,4-oxadiazol-3-yl)phenyl)imino)-λ^6-sulfanone] are over 90% and over 70%. As to `CS(=O)(Cc1ccccc1F)=Nc1ccc(-c2noc(C(F)(F)F)n2)cc1` (centres unmarked) [Compound 94, (2-fluorobenzyl)(methyl)((4-(5-(trifluoromethyl)-1,2,4-oxadiazol-3-yl)phenyl)imino)-λ^6-sulfanone], the inhibition of growth at 300 ppm in the test with Alternaria solani is over 70%.

Turning to `COc1ccc(S(C)(=O)=Nc2ccc(-c3noc(C(F)(F)F)n3)cc2)cc1` (centres unmarked) [Compound 20, (4-methoxyphenyl)(methyl)((4-(5-(trifluoromethyl)-1,2,4-oxadiazol-3-yl)phenyl)imino)-λ^6-sulfanone], the inhibition of growth at 300 ppm with Pyricularia oryzae and in the test on Alternaria solani was over 70% each time. Also, the pest or weed control at 500 ppm in the test with Phakopsora pachyrhizi was over 90%.
